Experimental data: ChEMBL document CHEMBL1155510, “Scaffold rearrangement of dihydroxypyrimidine inhibitors of HIV integrase: Docking model revisited” (Bioorg Med Chem Lett, 2010)

Experiments:
[1] = Inhibition of HIV integrase 3'-end processing reaction; set-up: species or system Human immunodeficiency virus
[2] = Inhibition of HIV integrase strand transfer activity; set-up: species or system Human immunodeficiency virus

With `CNC(=O)c1nc(Cc2ccc(F)cc2)[nH]c(=O)c1O` the IC50 [1] was > 333 µM and the IC50 [2] was 169 µM.

With `CNC(=O)c1nc(C)n(Cc2ccc(F)cc2)c(=O)c1O` the IC50 [1] was > 333 µM and the IC50 [2] was 111 µM.

For `CN(C)CCCNC(=O)c1nc(Cc2ccc(F)cc2)[nH]c(=O)c1O`, the IC50 [1] was > 333 µM and the IC50 [2] was > 333 µM.

With `O=C(O)c1nc(Cc2ccc(F)cc2)[nH]c(=O)c1O` the IC50 [1] was > 333 µM and the IC50 [2] was 243 µM.

In the case of `CNC(=O)c1nc(Cc2ccc(F)cc2)n(C)c(=O)c1O`, the IC50 [1] is reported as > 333 µM and the IC50 [2] is reported as 241 µM.

In the case of `COCCNC(=O)c1nc(Cc2ccc(F)cc2)[nH]c(=O)c1O`, the IC50 [1] is reported as > 333 µM and the IC50 [2] is reported as 206 µM.
